Source: publication PMC4643876, “Picomolar Inhibition of Plasmepsin V, an Essential Malaria Protease, Achieved Exploiting the Prime Region” (PLoS ONE, 2015)
pIC50, pKi: −log10 of the molar value. Read-outs that look alike come from different tables or passages of the source. Square brackets hold non-standard residues; d marks the D form. Peptide text beside a SMILES is read from it. * marks the point of attachment. Sta = CC(C)C[C@H](N)[C@@H](O)CC(=O)O; Isovaleryl = CC(C)CC(=O)*

Assays:
Plasmepsin V (PmV) = biological target: T1, Plasmepsin V (PmV) (Plasmodium falciparum, UniProt Q8I6Z5); assay: PmV inhibition, fluorimetric PExEl cleavage assay; assay type: biochemical; settings: for pIC50: read-out: IC50; for IC50: read-out: pIC50 (converted)
T1 construct: PmV was purified directly from parasites; made in house
Procedure: Saponin was added to culture to a final 0.05%; parasites were recovered via centrifugation at 4°C after 5 min of incubation on ice; parasite pellets were then washed twice in cold PBS and either immediately lysed or stored at -80°C until lysis. Parasites were lysed via three pulses of ultra-sonication of 10 sec duration, in PBS containing 0.5% Triton-X100 (TX-100). […] Quick washes of the resin were performed either in batches, or over columns, to remove unbound cellular material (four with ice-cold 0.5% TX-100 in PBS and a final one with cold PBS). Resin-bound PmV was stored in PBS at 4°C and used within 2–3 weeks, larger batches had Glycerol added to them, up to 10%, and were stored at -20°C for up to 5 months. […] Quality and purity of PmV batches were routinely confirmed by protein electrophoresis. Quantification of PmV was performed via densitometry analysis of stained protein SDS-PAGE gels relative to BSA standard curves.
PExEl cleavage activity was monitored by fluorimetric measurement of PExEl cleavage, as previously reported. […] PmV activity was performed at 37°C in 50 mM Tris-Maleate, pH 6.5, 50 mM NaCl, 0.05% TX-100, 2 mM DTT. Assays were routinely conducted in triplicate. Bead-bound enzyme was added to the reaction using ‘end-cut’ micropipette tips in order to facilitate sampling the suspension.
Inhibitory activities were measured in the presence of a substrate concentration of 3 μM by serial dilution of each compound in triplicates. […] Titration curves of the inhibitors were routinely composed of eleven points from 10 μM to 0.1 pM. PmV concentration was kept in the order of low picomolar (≤10 pM). […] Analysis of the half inhibitory activity (IC50) was performed by sigmoidal interpolation of the starting velocities of the hydrolytic reactions for each condition. Starting velocities were calculated on the initial linear range of the product progression curves. […] Data are presented with error bars indicating the standard deviation of three independent activity curves.

[1] = tested on: Plasmodium falciparum strain 3D7; assay: Parasite growth inhibition by flow cytometry, strain 3D7; assay type: cell-based; settings: asynchronous 3D7 cultures, about 4 days, 0.195–200 μM, flow cytometry
[2] = 3 μM HRPII-PExEl substrate, averages of not less than three inhibition curves
[3] = 3 μM substrate, tested up to 10 μM

T1 sequence (Q8I6Z5 whole entry): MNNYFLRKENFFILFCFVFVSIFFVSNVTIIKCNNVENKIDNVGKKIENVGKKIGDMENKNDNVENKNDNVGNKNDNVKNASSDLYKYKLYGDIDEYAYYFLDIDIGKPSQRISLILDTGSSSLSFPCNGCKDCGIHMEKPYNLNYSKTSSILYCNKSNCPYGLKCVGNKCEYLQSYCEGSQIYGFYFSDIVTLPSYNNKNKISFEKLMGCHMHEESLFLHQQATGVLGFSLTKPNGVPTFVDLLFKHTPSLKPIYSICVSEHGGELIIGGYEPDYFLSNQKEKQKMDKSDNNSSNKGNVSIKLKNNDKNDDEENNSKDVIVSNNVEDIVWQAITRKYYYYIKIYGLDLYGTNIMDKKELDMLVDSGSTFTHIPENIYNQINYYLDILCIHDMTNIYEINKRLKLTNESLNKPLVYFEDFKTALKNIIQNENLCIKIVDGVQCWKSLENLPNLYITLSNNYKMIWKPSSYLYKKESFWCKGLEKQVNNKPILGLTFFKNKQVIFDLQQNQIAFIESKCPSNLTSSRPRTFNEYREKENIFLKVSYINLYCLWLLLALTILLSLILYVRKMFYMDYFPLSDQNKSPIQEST

Row | SMILES | pKi (Plasmepsin V (PmV)) | pIC50 (Plasmepsin V (PmV); [2]) | further results
1 | CC(C)C[C@H](NC(=O)[C@H](CO)NC(=O)[C@@H](N)CCCNC(=N)N)C(O)CN[C@@H](Cc1ccc(O)cc1)C(=O)N[C@@H](CCC(=O)O)C(=O)N[C@@H](C)C(N)=O (mixture of isomers) [Compound 12] | 7.91 | 7.64 | IC50 increase compared to Compound 7a (Plasmepsin V (PmV)): 15 fold
2 | CC(C)C[C@H](NC(=O)[C@@H](N)CCCCN)C(=O)N[C@@H](CC(C)C)C(O)CN[C@@H](C)C(=O)N[C@@H](CCC(N)=O)C(=O)N[C@@H](C)C(N)=O (mixture of isomers) [Compound 18] |  | < 5.00 | 
3 | CC(C)C[C@H](NC(=O)[C@@H](N)CCCNC(=N)N)C(=O)N[C@@H](CC(C)C)C(O)CN[C@@H](C)C(=O)N[C@@H](CCC(=O)O)C(N)=O (mixture of isomers) [Compound 22] | 9.66 | 9.38 | 
4 | CC(C)C[C@H](NC(=O)[C@@H](N)CCCNC(=N)N)C(=O)N[C@@H](CC(C)C)C(O)CN[C@@H](C)C(=O)N[C@@H](CCC(N)=O)C(N)=O (mixture of isomers) [Compound 23] | 8.16 | 7.89 | IC50 increase compared to Compound 8a (Plasmepsin V (PmV)): 2.5 fold
5 | CC(C)C[C@H](NC(=O)[C@@H](N)CCCNC(=N)N)C(=O)N[C@@H](CC(C)C)C(O)CN[C@@H](C)C(=O)NCC(=O)O (mixture of isomers) [Compound 25] | 8.10 | 7.83 | 
6 | CC(C)C[C@H](NC(=O)[C@@H](N)Cc1c[nH]c2ccccc12)C(=O)N[C@@H](CC(C)C)C(O)CN[C@@H](C)C(=O)N[C@@H](CCC(=O)O)C(N)=O (mixture of isomers) [Compound 31] |  |  | pIC50 (Plasmepsin V (PmV); [3]): < 5.00
7 | CC(C)C[C@H](NC(=O)[C@@H](N)Cc1c[nH]c2ccccc12)C(=O)N[C@@H](CC(C)C)C(O)CN[C@@H](C)C(=O)N[C@@H](CCC(=O)O)C(N)=O (mixture of isomers) [LG51_Mix] |  |  | pIC50 (Plasmepsin V (PmV); Activity): 4.40; IC50 (Plasmepsin V (PmV); Activity): 39800 nM
8 | CC(C)C[C@H](NC(=O)[C@@H](N)CCCNC(=N)N)C(=O)N[C@@H](CC(C)C)[C@@H](O)CN[C@@H](Cc1ccc(O)cc1)C(=O)N[C@@H](CCC(=O)O)C(N)=O [Compound 2a] | 9.01 | 8.74 | 
9 | CC(C)C[C@H](NC(=O)[C@@H](N)CCCNC(=N)N)C(=O)N[C@@H](CC(C)C)[C@H](O)CN[C@@H](Cc1ccc(O)cc1)C(=O)N[C@@H](CCC(=O)O)C(N)=O [Compound 2b] | 7.76 | 7.49 | 
10 | CC(C)C[C@H](NC(=O)[C@@H](N)Cc1ccc(O)cc1)C(=O)N[C@@H](CC(C)C)[C@@H](O)CN[C@@H](C)C(=O)N[C@@H](CCC(=O)O)C(=O)N[C@@H](C)C(N)=O [Compound 3a] | 5.60 | 5.33 | 
11 | CC(C)C[C@H](NC(=O)[C@@H](N)Cc1ccc(O)cc1)C(=O)N[C@@H](CC(C)C)[C@H](O)CN[C@@H](C)C(=O)N[C@@H](CCC(=O)O)C(=O)N[C@@H](C)C(N)=O [Compound 3b] | 5.18 | ~4.91 | 
12 | CC(C)C[C@H](NC(=O)[C@@H](N)CCCNC(=N)N)C(=O)N[C@@H](CC(C)C)[C@@H](O)CN[C@@H](Cc1ccc(O)cc1)C(=O)N[C@@H](CCC(=O)O)C(=O)N[C@@H](C)C(N)=O [Compound 7a] | 9.13 | 8.86 | IC50 increase compared to Compound 1 (Plasmepsin V (PmV)): 4–7 fold
13 | CC(C)C[C@H](NC(=O)[C@@H](N)CCCNC(=N)N)C(=O)N[C@@H](CC(C)C)[C@H](O)CN[C@@H](C)C(=O)N[C@@H](CCC(N)=O)C(=O)N[C@@H](C)C(N)=O [Compound 8b] |  |  | LD50 growth inhibition [1]: ~ 120.5 μM
14 | CC(C)C[C@H](NC(=O)[C@@H](N)CCCNC(=N)N)C(=O)N[C@@H](CC(C)C)[C@@H](O)CN[C@@H](Cc1ccc(O)cc1)C(=O)N[C@@H](CCC(N)=O)C(=O)N[C@@H](C)C(N)=O [Compound 9a] | 8.17 | 7.90 | IC50 increase compared to Compound 7a (Plasmepsin V (PmV)): ~ 9 fold; IC50 increase compared to Compound 8a (Plasmepsin V (PmV)): 4–7 fold
15 | CC(C)C[C@H](NC(=O)[C@H](C)NC(=O)[C@@H](N)CCCNC(=N)N)[C@@H](O)CN[C@@H](Cc1ccc(O)cc1)C(=O)N[C@@H](CCC(=O)O)C(=O)N[C@@H](C)C(N)=O [Compound 11a] | 8.48 | 8.21 | IC50 increase compared to Compound 7a (Plasmepsin V (PmV)): 5 fold
16 | CC(C)C[C@H](NC(=O)[C@@H](N)CCCCN)C(=O)N[C@@H](CC(C)C)[C@@H](O)CN[C@@H](C)C(=O)N[C@@H](CCC(=O)O)C(=O)N[C@@H](C)C(N)=O [Compound 13a] | 6.39 | 6.12 | pIC50 (Plasmepsin V (PmV); [3]): 6.11
17 | CC(C)C[C@H](NC(=O)[C@@H](N)Cc1c[nH]cn1)C(=O)N[C@@H](CC(C)C)[C@@H](O)CN[C@@H](C)C(=O)N[C@@H](CCC(=O)O)C(=O)N[C@@H](C)C(N)=O [Compound 14a] | 6.04 | 5.77 | 

Row | SMILES | pKi (Plasmepsin V (PmV)) | pIC50 (Plasmepsin V (PmV); [2]) | further results
18 | CC(C)C[C@H](NC(=O)[C@@H](N)Cc1c[nH]c2ccccc12)C(=O)N[C@@H](CC(C)C)[C@@H](O)CN[C@@H](C)C(=O)N[C@@H](CCC(N)=O)C(=O)N[C@@H](C)C(N)=O [Compound 19a] | 5.56 | 5.29 | 
19 | CC(C)C[C@H](NC(=O)[C@@H](N)Cc1c[nH]cn1)C(=O)N[C@@H](CC(C)C)[C@@H](O)CN[C@@H](Cc1ccc(O)cc1)C(=O)N[C@@H](CCC(N)=O)C(=O)N[C@@H](C)C(N)=O [Compound 20a] | 5.36 | 5.09 | 
20 | CC(C)C[C@H](NC(=O)[C@@H](N)Cc1c[nH]c2ccccc12)C(=O)N[C@@H](CC(C)C)[C@@H](O)CN[C@@H](Cc1ccc(O)cc1)C(=O)N[C@@H](CCC(N)=O)C(=O)N[C@@H](C)C(N)=O [Compound 21a] | 6.17 | 5.90 | 
21 | CC(C)C[C@H](NC(=O)[C@@H](N)CCCNC(=N)N)C(=O)N[C@@H](CC(C)C)[C@@H](O)CN[C@@H](C)C(=O)N[C@@H](CCC(N)=O)C(=O)O [Compound 24a] | 8.05 | 7.78 | 
22 | CC(C)C[C@H](NC(=O)[C@@H](N)CCCNC(=N)N)C(=O)N[C@@H](CC(C)C)[C@@H](O)CN[C@@H](Cc1ccc(O)cc1)C(=O)N[C@@H](CCC(N)=O)C(=O)O [Compound 26a] | 8.03 | 7.76 | 
23 | CC(C)C[C@H](NC(=O)[C@@H](N)CCCNC(=N)N)C(=O)N[C@@H](CC(C)C)[C@@H](O)CN[C@@H](Cc1ccc(O)cc1)C(=O)NCC(=O)O [Compound 27a] | 8.73 | 8.46 | 
24 | CC(C)C[C@H](NC(=O)[C@@H](N)CCCCN)C(=O)N[C@@H](CC(C)C)[C@@H](O)CN[C@@H](Cc1ccc(O)cc1)C(=O)N[C@@H](CCC(=O)O)C(N)=O [Compound 30a] |  |  | pIC50 (Plasmepsin V (PmV); [3]): < 5.00
25 | CC(C)C[C@H](NC(=O)[C@@H](N)Cc1c[nH]c2ccccc12)C(=O)N[C@@H](CC(C)C)[C@@H](O)CN[C@@H](Cc1ccc(O)cc1)C(=O)N[C@@H](CCC(=O)O)C(N)=O [Compound 32a] |  |  | pIC50 (Plasmepsin V (PmV); [3]): < 5.00
26 | CC(C)C[C@H](NC(=O)[C@@H](N)Cc1c[nH]c2ccccc12)C(=O)N[C@@H](CC(C)C)[C@@H](O)CN[C@@H](CO)C(=O)N[C@@H](CCC(=O)O)C(N)=O [Compound 33a] |  |  | pIC50 (Plasmepsin V (PmV); [3]): < 5.00
27 | CC(C)C[C@H](NC(=O)[C@@H](N)Cc1c[nH]c2ccccc12)C(=O)N[C@@H](CC(C)C)[C@@H](O)CN[C@H](C(=O)N[C@@H](CCC(=O)O)C(N)=O)[C@@H](C)O [Compound 34a] |  |  | pIC50 (Plasmepsin V (PmV); [3]): < 5.00
28 | CC(C)C[C@H](NC(=O)[C@@H](N)CCCNC(=N)N)C(=O)N[C@@H](CC(C)C)C(O)CN[C@@H](C)C(=O)N[C@@H](CCC(=O)O)C(=O)N[C@@H](C)C(N)=O (some centres unmarked) [LG20_Mix] |  |  | pIC50 (Plasmepsin V (PmV); Activity): 9.43; IC50 (Plasmepsin V (PmV); Activity): 0.363 nM
29 | CC(C)C[C@H](NC(=O)[C@@H](N)CCCCN)C(=O)N[C@@H](CC(C)C)[C@@H](O)CN[C@@H](C)C(=O)N[C@@H](CCC(=O)O)C(N)=O [LG61A_S] |  |  | pIC50 (Plasmepsin V (PmV); Activity): 5.09; IC50 (Plasmepsin V (PmV); Activity): 8130 nM
30 | CC(C)C[C@H](NC(=O)[C@@H](N)CCCCN)C(=O)N[C@@H](CC(C)C)[C@@H](O)CN[C@@H](Cc1ccc(O)cc1)C(=O)N[C@@H](CCC(=O)O)C(N)=O [LG62A_S] |  |  | pIC50 (Plasmepsin V (PmV); Activity): 4.76; IC50 (Plasmepsin V (PmV); Activity): 17400 nM
31 | CCCCCCCC(=O)N[C@@H](CCCNC(=N)N)C(=O)N[C@@H](CC(C)C)C(=O)N[C@@H](CC(C)C)[C@H](O)CN[C@@H](Cc1ccc(O)cc1)C(=O)N[C@@H](CCC(=O)O)C(=O)N[C@@H](C)C(N)=O [LG63B_R] |  |  | pIC50 (Plasmepsin V (PmV); Activity): 8.80; IC50 (Plasmepsin V (PmV); Activity): 1.58 nM
32 | CC(C)C[C@H](NC(=O)[C@@H](N)CCCNC(=N)N)C(=O)N[C@@H](CC(C)C)[C@H](O)CN[C@@H](Cc1ccc(O)cc1)C(=O)NCC(=O)O [LG69B_R] |  |  | pIC50 (Plasmepsin V (PmV); Activity): 6.95; IC50 (Plasmepsin V (PmV); Activity): 112 nM
33 | Cc1cccc(C)c1OCC(=O)N[C@@H](Cc1ccccc1)[C@@H](O)C[C@H](Cc1ccccc1)NC(=O)[C@H](C(C)C)N1CCCNC1=O [Lopinavir, reference compound] | 4.96 | 4.69 | 
34 | CC(C)CC(=O)N[C@H](C(=O)N[C@H](C(=O)N[C@@H](CC(C)C)[C@@H](O)CC(=O)N[C@@H](C)C(=O)N[C@@H](CC(C)C)[C@@H](O)CC(=O)O)C(C)C)C(C)C [Pepstatin A, reference compound] (Isovaleryl-VV[Sta]A[Sta]-OH) | 4.63 | 4.36 | 
